Measured values: PubChem BioAssay AID2060896 (Molecular Pharmacology Branch, DTP, NCI, 2025)
pIC50: −log10 of the molar value.

Test system: 941728-121-R-J1-PDC complex spheroid viability
Assay: Anticancer human tumor 941728-121-R-J1-PDC patient-derived lung adenocarcinoma cell line growth inhibition [RAS]
Details: for pIC50: curve of first compound; for viability, T/C: stronger effect = lower value
Description: RAS pathway inhibitors in Combinations in Complex Spheroids
A high-throughput screen of multi-cell type tumor spheroids was designed to identify active combinations of RAS pathway inhibitors and targeted small molecules. Complex spheroids include a stromal component modeled by human endothelial cells (HUVEC) and fibroblasts modeled by human mesenchymal stem cells (MSCs). The concentration ranges selected for each drug and investigational agent were based upon clinically achievable concentrations if the clinical Cmax of the agent was known.
Compounds. The drugs and investigational agents: abemaciclib (NSC768073), cobimetinib (NSC768068), divarasib (GDC6063, NSC841802), docetaxel (NSC628503), GDC-1971 (RLY-1971, NSC841576), gemcitabine (NSC613327), inavolisib (NSC800729), ipatasertib (NSC767898), KB-0742 (NSC834161), MRTX-1133 (NSC836407), osimertinib (NSC779217), RMC-4630 (NSC839698), RMC-6236 (NSC851965), RMC-6291 (NSC852671), Ro-3306 (NSC812927), sapanisertib (NSC764658), SN-38 (NSC673596), staurosporine (NSC755774), SY5609 (NSC837396), and tovorafenib (DAY101, NSC766906), were obtained from the National Cancer Institute (NCI) Developmental Therapeutics Program Chemical Repository. The FDA-approved anticancer drug set is available from the NCI Developmental Therapeutics Program. […] The stock solutions were prepared in dimethyl sulfoxide (DMSO, Sigma-Aldrich, St. Louis, MO, cat. D2650) at 800-fold the tested concentration and stored at -70 degrees C prior to their use. All drugs and investigational agents were tested over a range starting from a high concentration at or near the clinical Cmax and decreasing in half-log increments. If the clinical Cmax for an agent had not been determined, the highest concentration tested was 10 microM.
Cell Culture. All cells were maintained in an incubator at 37 degrees C and 5% CO2 with 95% humidity. The PDC lines were cultured according to standard operating procedures established by the NCI PDMR. All PDCs were thawed and cultured in Matrigel-coated flasks prepared with a working solution of 1X Ham's F-12 nutrient mix, without supplementation (Invitrogen, Waltham, MA, cat. 11765054), 100 U/mL penicillin-streptomycin (Invitrogen, cat. 15140122), and 2.5% Matrigel (Corning Inc., Corning, NY, cat. 354248) for the first three passages. The 362531-283-R-J2-PDC and 782815-120-R-J1-PDC lines were cultured in 6C/Colon 1B media, which includes advanced DMEM/F-12 (Thermo Fisher Scientific, cat. 12634028), 10 mM HEPES (Thermo Fisher Scientific, cat. 15630080), 1X GlutaMAX supplement (Thermo Fisher Scientific, cat. 35050061), 0.1 mg/mL primocin (InvivoGen, San Diego, CA, cat. ant-pm-2), 10% defined fetal bovine serum, heat inactivated (HyClone Laboratories Inc., Logan, UT, cat. SH30070.03HI), 50% L-WRN conditioned media (ATCC, cat. CRL-3276), 1.25 mM N-Acetyl-L-cysteine (Sigma-Aldrich, cat. A9165), 10 mM nicotinamide (Sigma-Aldrich, cat. N0636), 1X B-27 supplement (Thermo Fisher Scientific, cat. 17504044), 1X N-2 supplement (Thermo Fisher Scientific, cat. 17502048), 50 ng/mL human EGF (Thermo Fisher Scientific, cat. PHG0311), and 10 microM Y-27632 dihydrochloride (Tocris Bioscience, cat. 1254). The K12877-001-R-J1-PDC line was cultured in 6I media, which includes all 6C/Colon 1B media plus 10 ng/mL human FGF-10 (PeproTech, cat. 100-26), 1 ng/mL human FGF-2 (PeproTech, cat. 100-18B), 1 µM prostaglandin E2 (Tocris Bioscience, cat. 2296), […] hydrocortisone (Sigma-Aldrich, cat. H4001), and […] bovine insulin (Sigma-Aldrich, cat. I6634). The K86415-001-R-J1-PDC line was cultured in 6D media, which includes all 6C/Colon 1B media components minus the L-WRN conditioned media. The 485176-168-R4-J1-PDC was cultured in PANC media, which includes all 6C/Colon 1B media plus 100 ng/mL human FGF-10 (PeproTech, cat. 100-26), 500 nM SB-431542 (Selleckchem, cat. S1067), and 10 nM gastrin (Tocris Bioscience, cat. 3006). […]

[1] = second compound 0.0316 µM, first compound 0.0316 µM
[2] = second compound 0.0316 µM, first compound 0.1 µM
[3] = second compound 0.0316 µM, first compound 0.316 µM
[4] = second compound 0.0316 µM, first compound 1 µM
[5] = second compound 0.0316 µM, first compound 3.16 µM
[6] = second compound 0.0316 µM, first compound 10 µM
[7] = second compound 0.1 µM, first compound 0.0316 µM
[8] = second compound 0.1 µM, first compound 0.1 µM
[9] = second compound 0.1 µM, first compound 0.316 µM
[10] = second compound 0.1 µM, first compound 1 µM
[11] = second compound 0.1 µM, first compound 3.16 µM
[12] = second compound 0.1 µM, first compound 10 µM
[13] = second compound 0.316 µM, first compound 0.0316 µM
[14] = second compound 0.316 µM, first compound 0.1 µM
[15] = second compound 0.316 µM, first compound 0.316 µM
[16] = second compound 0.316 µM, first compound 1 µM
[17] = second compound 0.316 µM, first compound 3.16 µM
[18] = second compound 0.316 µM, first compound 10 µM
[19] = second compound 1 µM, first compound 0.0316 µM
[20] = second compound 1 µM, first compound 0.1 µM
[21] = second compound 1 µM, first compound 0.316 µM
[22] = second compound 1 µM, first compound 1 µM
[23] = second compound 1 µM, first compound 3.16 µM
[24] = second compound 1 µM, first compound 10 µM
[25] = second compound 3.16 µM, first compound 0.0316 µM
[26] = second compound 3.16 µM, first compound 0.1 µM
[27] = second compound 3.16 µM, first compound 0.316 µM
[28] = second compound 3.16 µM, first compound 1 µM
[29] = second compound 3.16 µM, first compound 3.16 µM
[30] = second compound 3.16 µM, first compound 10 µM
[31] = second compound 10 µM, first compound 0.0316 µM
[32] = second compound 10 µM, first compound 0.1 µM
[33] = second compound 10 µM, first compound 0.316 µM
[34] = second compound 10 µM, first compound 1 µM
[35] = second compound 10 µM, first compound 3.16 µM
[36] = second compound 10 µM, first compound 10 µM
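Further: spheroids exposed to compounds for 7 days before readout.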
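Wherever viability, T/C is given: 100% = DMSO vehicle control viability.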

`CC1(O)CCCC1n1c(=O)c(C(F)F)cc2cnc(NC3CCN(S(C)(=O)=O)CC3)nc21` (stereo unspecified) + C#Cc1c(F)ccc2cc(O)cc(-c3ncc4c(N5CC6CCC(C5)N6)nc(OCC56CCCN5CC(F)C6)nc4c3F)c12 was tested, and the pIC50 (second compound 0.0316 µM) was 5.17, the pIC50 (second compound 0.1 µM) was 5.17 and the pIC50 (second compound 0.316 µM) was < 5.00. For the same molecule, the pIC50 (second compound 1 µM) was > 7.50, the pIC50 (second compound 3.16 µM) was > 7.50 and the pIC50 (second compound 10 µM) was > 7.50. It also gave a viability, T/C [1] of 69.8%, a viability, T/C [2] of 75% and a viability, T/C [3] of 71.9%. It also gave a viability, T/C [4] of 80.1%, a viability, T/C [5] of 81.7% and a viability, T/C [6] of 36.7%. The viability, T/C [7] was 69.4%, the viability, T/C [8] was 72% and the viability, T/C [9] was 62.6%. The viability, T/C [10] was 68.7%, the viability, T/C [11] was 75.7% and the viability, T/C [12] was 40%. It also gave a viability, T/C [13] of 56.2%, a viability, T/C [14] of 51.5% and a viability, T/C [15] of 51.2%. The viability, T/C [16] was 65.6%, the viability, T/C [17] was 65% and the viability, T/C [18] was 39.9%. The viability, T/C [19] was 44.2%, the viability, T/C [20] was 38.9% and the viability, T/C [21] was 46.9%. It also gave a viability, T/C [22] of 50.3%, a viability, T/C [23] of 55.3% and a viability, T/C [24] of 36%. For the same molecule, the viability, T/C [25] was 30.1%, the viability, T/C [26] was 33% and the viability, T/C [27] was 36.5%. The viability, T/C [28] was 36.9%, the viability, T/C [29] was 38.5% and the viability, T/C [30] was 28.6%. The viability, T/C [31] was 25.6%, the viability, T/C [32] was 26.6% and the viability, T/C [33] was 28%. The viability, T/C [34] was 28.1%, the viability, T/C [35] was 28% and the viability, T/C [36] was 24%.
In the case of `CCC(CC)c1cc(NC2CCC(N)C2)n2nccc2n1` (stereo unspecified) + C#Cc1c(F)ccc2cc(O)cc(-c3ncc4c(N5CC6CCC(C5)N6)nc(OCC56CCCN5CC(F)C6)nc4c3F)c12, the pIC50 (second compound 0.0316 µM) was 5.68, the pIC50 (second compound 0.1 µM) was 5.71 and the pIC50 (second compound 0.316 µM) was 5.83. For the same molecule, the pIC50 (second compound 1 µM) was > 7.50, the pIC50 (second compound 3.16 µM) was > 7.50 and the pIC50 (second compound 10 µM) was > 7.50. For the same molecule, the viability, T/C [1] was 96.6%, the viability, T/C [2] was 82.6% and the viability, T/C [3] was 91.4%. For the same molecule, the viability, T/C [4] was 90.5%, the viability, T/C [5] was 19.2% and the viability, T/C [6] was 36.7%. For the same molecule, the viability, T/C [7] was 96.1%, the viability, T/C [8] was 79% and the viability, T/C [9] was 78.5%. The viability, T/C [10] was 84.1%, the viability, T/C [11] was 20.8% and the viability, T/C [12] was 31.4%. It also gave a viability, T/C [13] of 60.9%, a viability, T/C [14] of 83.7% and a viability, T/C [15] of 59.5%. The viability, T/C [16] was 63.1%, the viability, T/C [17] was 18.4% and the viability, T/C [18] was 29.7%. The viability, T/C [19] was 40.1%, the viability, T/C [20] was 40.1% and the viability, T/C [21] was 41.4%. For the same molecule, the viability, T/C [22] was 46.2%, the viability, T/C [23] was 18.7% and the viability, T/C [24] was 32.7%. For the same molecule, the viability, T/C [25] was 31.5%, the viability, T/C [26] was 33.1% and the viability, T/C [27] was 37.6%. For the same molecule, the viability, T/C [28] was 35.8%, the viability, T/C [29] was 15.3% and the viability, T/C [30] was 34.3%. For the same molecule, the viability, T/C [31] was 23.2%, the viability, T/C [32] was 25.9% and the viability, T/C [33] was 27.2%. The viability, T/C [34] was 25.6%, the viability, T/C [35] was 11.4% and the viability, T/C [36] was 25.6%.
In the case of `CCN1CCN(Cc2ccc(Nc3ncc(F)c(-c4cc(F)c5nc(C)n(C(C)C)c5c4)n3)nc2)CC1` + C#Cc1c(F)ccc2cc(O)cc(-c3ncc4c(N5CC6CCC(C5)N6)nc(OCC56CCCN5CC(F)C6)nc4c3F)c12, the pIC50 (second compound 0.0316 µM) was < 6.00, the pIC50 (second compound 0.1 µM) was < 6.00 and the pIC50 (second compound 0.316 µM) was < 6.00. The pIC50 (second compound 1 µM) was > 8.50, the pIC50 (second compound 3.16 µM) was > 8.50 and the pIC50 (second compound 10 µM) was > 8.50. It also gave a viability, T/C (second compound 0.0316 µM, first compound 0.00316 µM) of 75.4%, a viability, T/C (second compound 0.0316 µM, first compound 0.01 µM) of 70.4% and a viability, T/C [1] of 58%. For the same molecule, the viability, T/C [2] was 49%, the viability, T/C [3] was 58% and the viability, T/C [4] was 59.7%. The viability, T/C (second compound 0.1 µM, first compound 0.00316 µM) was 71.4%, the viability, T/C (second compound 0.1 µM, first compound 0.01 µM) was 62% and the viability, T/C [7] was 52.9%. For the same molecule, the viability, T/C [8] was 46.7%, the viability, T/C [9] was 55.9% and the viability, T/C [10] was 68.9%. The viability, T/C (second compound 0.316 µM, first compound 0.00316 µM) was 55.6%, the viability, T/C (second compound 0.316 µM, first compound 0.01 µM) was 56.8% and the viability, T/C [13] was 38.3%. It also gave a viability, T/C [14] of 45.2%, a viability, T/C [15] of 51% and a viability, T/C [16] of 57.3%. For the same molecule, the viability, T/C (second compound 1 µM, first compound 0.00316 µM) was 38.2%, the viability, T/C (second compound 1 µM, first compound 0.01 µM) was 34.7% and the viability, T/C [19] was 31.4%. For the same molecule, the viability, T/C [20] was 35.5%, the viability, T/C [21] was 41.7% and the viability, T/C [22] was 50.1%. For the same molecule, the viability, T/C (second compound 3.16 µM, first compound 0.00316 µM) was 28.8%, the viability, T/C (second compound 3.16 µM, first compound 0.01 µM) was 26.4% and the viability, T/C [25] was 31.3%. The viability, T/C [26] was 25.3%, the viability, T/C [27] was 30.9% and the viability, T/C [28] was 36.2%. The viability, T/C (second compound 10 µM, first compound 0.00316 µM) was 23.5%, the viability, T/C (second compound 10 µM, first compound 0.01 µM) was 20.9% and the viability, T/C [31] was 21.9%. It also gave a viability, T/C [32] of 19.8%, a viability, T/C [33] of 18.4% and a viability, T/C [34] of 16.5%.
